From patent publication US5270334A, “4-methoxy-5-methyl-pyran-3-ol natural products and derivatives thereof” (E. R. Squibb & Sons, Inc., priority 1992, dated 1993) come the findings set out here.

Data set [1] relates to Aspergillus fumigatus. Description: Antibacterial and antifungal activity of lanomycin, agar dilution assay (Table 4). It counts as cell-based. The following applies: SC2100, Aspergillus fumigatus SC 2100. The method, then: (§1) *Minimal inhibitory concentrations were determined by agar dilution assay
The next data set has as its system Candida albicans. The description is as above. It counts as cell-based. The method, then: as §1
Data set [2] concerns Candida guillermondii. Described as above. It counts as cell-based. As to conditions: SC2996, Candida guillermondii SC 2996. The method, then: as §1
The next data set has as its system Candida tropicalis. The description is as above. It counts as cell-based. As to conditions: SC2963, Candida tropicalis SC 2963. The method, then:
as §1

The test system of another data set is Enterococcus faecalis. The data set is described as above. It counts as cell-based. The following applies: SC9011; Enterococcus faecalis SC 9011. The method, then:
as §1

For another data set, the system named is Escherichia coli. Described as above. It counts as cell-based. The following applies: SC8294; Escherichia coli SC 8294. The method, then: as §1
Another data set relates to Klebsiella aerogenes. Described as above. It counts as cell-based. As to conditions: SC10440; Klebsiella aerogenes SC 10440. The method, then:
as §1

The subject of a further data set is Micrococcus luteus. Described as above. It counts as cell-based. As to conditions: SC2495; Micrococcus luteus SC 2495. The method, then: as §1
The test system of the next data set is Proteus mirabilis. The description is as above. As to conditions: SC3855; Proteus mirabilis SC 3855. It counts as cell-based. The method, then:
as §1

In a further data set the test system is Pseudomonas aeruginosa. The description is as above. It counts as cell-based. The following applies: SC8329; Pseudomonas aeruginosa SC 8329. The method, then: as §1
A further data set deals with Staphylococcus aureus. The description is as above. It counts as cell-based. The method, then:
as §1

Data set [3] concerns Trichophyton mentagrophytes. The description is as above. As to conditions: SC2637, Trichophyton mentagrophytes SC 2637. It counts as cell-based. The method, then: as §1
The test system of data set [4] is Trichophyton rubrum. The data set is described as above. It counts as cell-based. As to conditions: SC9199, Trichophyton rubrum SC 9199. The method, then:
as §1

Data set [5] has as its system Epidermophyton floccosum. The data set is described as above. It counts as cell-based. The method, then:
as §1
(§2) **Higher value is based on hazy growth; lower value for clearly

Data set [6] concerns Microsporum canis. The data set is described as above. It counts as cell-based. The method, then:
as §1, §2

Data set [7] concerns Candida guillermondii. Description: Anticandidal activity of lanomycin, agar dilution method (Table 5). It counts as cell-based. As to conditions: for MIC: 10^4 cfu. The method, then: (§3) MICs were determined by the agar dilution method using a medium composed of tryptone (5 g), malt extract (3 g), glucose (10 g) and yeast extract (3 g) in 1 L distiled water; 10^4 cfu of the test organism was applied to the agar.

The subject of a further data set is Candida parakrusei. Described as above. It counts as cell-based. The following applies: for MIC: 10^4 cfu. The method, then:
as §3

For data set [8], the system named is Aspergillus fumigatus. Description: Activity of lanomycin against filamentous fungi, agar dilution (Table 6). It counts as cell-based. The method, then:
as §3
(§4) MICs were determined as in Table 5 except that the inoculum was 10^3 cfu.

Data set [9] has as its system Epidermophyton floccosum. The description is as above. It counts as cell-based. As to conditions: SC9185; Epidermophyton floccosum SC 9185; 10^3 cfu. The method, then:
as §3, §4

The test system of data set [10] is Microsporum canis. Described as above. It counts as cell-based. The following applies: SC9237; Microsporum canis SC 9237; 10^3 cfu. The method, then:
as §3, §4

Data set [11] concerns Trichophyton mentagrophytes. The description is as above. It counts as cell-based. As to conditions: SC2637; Trichophyton mentagrophytes SC 2637; 10^3 cfu. The method, then: as §3, §4
Data set [12] deals with Trichophyton rubrum. The data set is described as above. It counts as cell-based. The following applies: SC9199; Trichophyton rubrum SC 9199; 10^3 cfu. The method, then:
as §3, §4

A short description of data set [13]: acute toxicity, intraperitoneal administration to mice. As to conditions: mouse, in vivo, ip, random bred Swiss Webster Female mice.
Another data set concerns Gram negative bacteria. Description: antibacterial activity of lanomycin. The following applies: in words, Table 4. It counts as cell-based. The method, then: as §1
In another data set the test system is Gram positive bacteria. Description: antibacterial activity of lanomycin. It counts as cell-based. As to conditions: in words, Table 4. The method, then:
as §1

The subject of the next data set is Candida species. Kind of data set: antifungal activity of lanomycin. It counts as cell-based. The following applies: in words, Table 4. The method, then: as §1
The subject of the next data set is dermatophytes. Description: antifungal activity of lanomycin. It counts as cell-based. As to conditions: in words. The method, then:
as §1, §4

The target in another data set is T1, lanosterol demethylase (Candida albicans, UniProt P10613).
T1 construct: endogenous in cells; host or cells: Candida albicans SGY677
Description: inhibition of lanosterol demethylase, spectrophotometric carbon monoxide binding assay. The following applies: Candida albicans SGY677; read-out: concentration which gives 50% inhibition of carbon monoxide binding. The method, then:
The inhibition of lanosterol demethylase was determined by two methods: the spectrophotometric carbon monoxide binding assay of Omura and Sato (J. Biol. Chem. 239:2370-2378, 1964) and by a radiolabeled metabolic assay.
Cells of Candida albicans, SGY677, were grown overnight without shaking at 30° C. in a medium consisting of yeast extract 1%, peptone 2%, glucose 2% and distilled water. Cells were harvested by centrifugation and resuspended in 0.65M mannitol to an optical density at 600 nm of 2.5. At this density 1 ml of cells was equal to 6.7 mg constant dry weight (105° C. for 18 hours).
Scopularin and its alcohol derivative of Example 4 were added to the enzyme and the inhibition of carbon monoxide binding determined over a range of inhibitor concentrations.

In brackets after ≈: the same amount, converted by molar mass. A value given as a limit tells only on which side of the number the result lay.

T1 sequence (P10613 whole entry): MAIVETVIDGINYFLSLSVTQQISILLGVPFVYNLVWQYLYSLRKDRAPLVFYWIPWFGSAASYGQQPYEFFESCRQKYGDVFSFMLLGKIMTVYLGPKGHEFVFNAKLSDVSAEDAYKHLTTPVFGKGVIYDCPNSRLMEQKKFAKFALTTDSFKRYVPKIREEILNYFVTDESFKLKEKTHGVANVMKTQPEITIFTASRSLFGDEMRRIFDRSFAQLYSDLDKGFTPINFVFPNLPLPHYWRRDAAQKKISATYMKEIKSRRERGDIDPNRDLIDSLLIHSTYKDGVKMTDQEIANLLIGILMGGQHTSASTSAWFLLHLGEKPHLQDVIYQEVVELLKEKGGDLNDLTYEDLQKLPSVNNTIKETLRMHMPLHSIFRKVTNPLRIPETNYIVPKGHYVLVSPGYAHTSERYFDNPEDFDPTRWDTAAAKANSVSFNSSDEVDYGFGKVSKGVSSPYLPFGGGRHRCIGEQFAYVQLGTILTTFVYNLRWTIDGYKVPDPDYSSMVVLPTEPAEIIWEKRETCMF

With `C/C=C/C=C/C=C(\C)[C@H]1OC[C@@H](C)[C@@H](OC)[C@@H]1OC(=O)CN` (relative stereo) [Lanomycin], the MIC with Aspergillus fumigatus [1] is 100 µg/mL (≈ 323 µM); in the data set with Candida albicans (SC5314, Candida albicans SC 5314), over 100 µg/mL; against Candida albicans (SC11422, Candida albicans SC 11422) it was 100 µg/mL (≈ 323 µM); against Candida guillermondii [2] it was 1.6 µg/mL (≈ 5.17 µM); with Candida tropicalis it was 25 µg/mL (≈ 80.8 µM); in the data set with Enterococcus faecalis, over 100 µg/mL. Further, the MIC in the data set with Escherichia coli was over 100 µg/mL; against Klebsiella aerogenes, over 100 µg/mL; against Micrococcus luteus it was over 100 µg/mL; in the data set with Proteus mirabilis it was over 100 µg/mL; in the data set with Pseudomonas aeruginosa it was over 100 µg/mL; against Staphylococcus aureus (SC1276, Staphylococcus aureus SC 1276), over 100 µg/mL. Further, the MIC against Staphylococcus aureus (SC2399, Staphylococcus aureus SC 2399) was over 100 µg/mL; in [3] it was 0.8 µg/mL (≈ 2.59 µM); in the data set with Trichophyton rubrum [4], 1.6 µg/mL (≈ 5.17 µM); against Epidermophyton floccosum [5] (SC9185, Epidermophyton floccosum SC 9185, higher value, based on hazy growth), 100 µg/mL (≈ 323 µM); against Epidermophyton floccosum [5] (SC9185, Epidermophyton floccosum SC 9185, lower value, clearly discernible growth), 1.6 µg/mL (≈ 5.17 µM); with Microsporum canis [6] (SC9237, Microsporum canis SC 9237, higher value, based on hazy growth), 100 µg/mL (≈ 323 µM). In addition, the MIC in the data set on Microsporum canis [6] (SC9237, Microsporum canis SC 9237, lower value, clearly discernible growth) was 1.6 µg/mL (≈ 5.17 µM); with Candida guillermondii [7] (SC2210, Candida guillermondii SC 2210), 50 µg/mL (≈ 162 µM); in the data set on Candida guillermondii [7] (SC2996, Candida guillermondii SC 2996) it was 1.6 µg/mL (≈ 5.17 µM); against Candida parakrusei (SC2621, Candida parakrusei SC 2621), 12.5 µg/mL (≈ 40.4 µM); against Candida parakrusei (SC2966, Candida parakrusei SC 2966) it was 25 µg/mL (≈ 80.8 µM); against Aspergillus fumigatus [8] (SC2100, Aspergillus fumigatus SC 2100, 10^3 cfu), 100 µg/mL (≈ 323 µM). Moreover, the MIC in the data set on Epidermophyton floccosum [9] worked out at 0.4 µg/mL (≈ 1.29 µM); in the data set on Microsporum canis [10], 0.4 µg/mL (≈ 1.29 µM); in data set [11], 0.4 µg/mL (≈ 1.29 µM); against Trichophyton rubrum [12] it was 1.6 µg/mL (≈ 5.17 µM). Moreover, the “activity against certain strains of C. guillermondii” value in the data set with Candida guillermondii [7] (in words, Table 5) is given as “good activity”. The “activity against certain strains of C. parakrusei” value with Candida parakrusei (in words, Table 5) is on record as “good activity”. In the data set on Aspergillus fumigatus [8] (in words, Table 6), the “activity against Aspergillus fumigatus” value is “inactive”. For the same compound, the LD50 in data set [13] stood at 385 mg/kg. Besides, the “activity against Gram negative bacteria” value in the data set on Gram negative bacteria is “not active”. The “activity against Gram positive bacteria” value with Gram positive bacteria is “not active”. In addition, the “activity against some Candida species” value in the data set with Candida species is “showed activity”. Also, the activity against dermatophytes entry in the data set on dermatophytes (Table 4) is listed as “showed activity”; with dermatophytes (Table 6) it was “active”.
As for `CCC/C=C/C=C/C=C(\C)[C@H]1OC[C@@H](C)[C@@H](OC)[C@@H]1OC(=O)CN` (relative stereo) [Scopularin, (2α, 3β, 4α, 5α)-Tetrahydro-4-methoxy-5-methyl-2-(1-methyl-1,3,5-nonatrienyl)-2H-pyran-3-ol, aminoacetate ester], at lanosterol demethylase, the IC50 is 36 µM.
